In PubChem BioAssay AID2060491 (Molecular Pharmacology Branch, DTP, NCI, 2025):

Tested on: 857933-349-R-J2-PDC complex spheroids, viability
Experiment: Anticancer human tumor 857933-349-R-J2-PDC patient-derived colon adenocarcinoma cell line growth inhibition [GQUAD]
Settings: for IC50: curve of first compound; for viability, T/C: stronger effect = lower value
Text: DNA G-quadruplex Stabilizer Agents in Combinations in Complex Spheroids
A high-throughput screen of multi-cell type tumor spheroids was designed to identify active combinations of DNA G-quadruplex stabilizer agents and targeted small molecules. Complex spheroids include a stromal component modeled by human endothelial cells (HUVEC) and fibroblasts modeled by human mesenchymal stem cells (MSCs). The concentration ranges selected for each drug and investigational agent were based upon clinically achievable concentrations if the clinical Cmax of the agent was known.
Compounds. The drugs and investigational agents: pidnarulex (CX-5461; NSC782164), APTO-253 (NSC789042), BRACO-19 (NSC847499), peposertib (NSC802822), ceralasertib (NSC780249), elimusertib (NSC800525), camonsertib (NSC841442), AZD-1390 (NSC803789), olaparib (NSC753686), talazoparib (NSC767125), ART-558 (NSC835418), sotorasib (NSC818433), MRTX-1133 (NSC836407), SN-38 (NSC673596), topotecan (NSC609699), etoposide (NSC141540), doxorubicin (NSC123127), gemcitabine (NSC613327), 5-fluorouracil (NSC19893), paclitaxel (NSC125973), vemurafenib (NSC761431), panobinostat (NSC761190), R-306465 (JNJ-16241199; NSC773264), adavosertib (NSC754352), TP-3654 (NSC805149), carboplatin (NSC241240), KSQ-4279 (NSC840948), and staurosporine (NSC755774) were obtained from the National Cancer Institute (NCI) Developmental Therapeutics Program Chemical Repository (34). The FDA-approved anticancer drug set is available from the NCI Developmental Therapeutics Program. […] The stock solutions were prepared in dimethyl sulfoxide (DMSO, Sigma-Aldrich, St. Louis, MO, cat. D2650) at 800-fold the tested concentration and stored at -70 degrees C prior to their use. All drugs and investigational agents were tested over a range starting from a high concentration at or near the clinical Cmax and decreasing in half-log increments. If the clinical Cmax for an agent had not been determined, the highest concentration tested was 10 microM.
2.3 Cell Culture. All cells were maintained in an incubator at 37 degrees C and 5% CO2 with 95% humidity. The PDC lines were cultured according to standard operating procedures established by the NCI PDMR. All PDCs were thawed and cultured in Matrigel-coated flasks prepared with a working solution of 1X Ham's F-12 nutrient mix, without supplementation (Invitrogen, cat. 11765054), 100 U/mL penicillin-streptomycin (Invitrogen, cat. 15140122), and 2.5% Matrigel (Corning Inc., cat. 354248) for the first three passages. The 857933-349-R-J2-PDC line was cultured in 6C/Colon 1B media, which includes advanced DMEM/F-12 (Thermo Fisher Scientific, cat. 12634028), 10 mM HEPES (Thermo Fisher Scientific, cat. 15630080), 1X GlutaMAX supplement (Thermo Fisher Scientific, cat. 35050061), 0.1 mg/mL primocin (InvivoGen, cat. ant-pm-2), 10% defined fetal bovine serum, heat inactivated (HyClone Laboratories Inc., cat. SH30070.03HI), 50% L-WRN conditioned media (ATCC, cat. CRL-3276), 1.25 mM N-Acetyl-L-cysteine (Sigma-Aldrich, cat. A9165), 10 mM nicotinamide (Sigma-Aldrich, cat. N0636), 1X B-27 supplement (Thermo Fisher Scientific, cat. 17504044), 1X N-2 supplement (Thermo Fisher Scientific, cat. 17502048), 10 microM Y-27632 dihydrochloride (Tocris Bioscience, cat. 1254), and 50 ng/mL human EGF recombinant protein (Thermo Fisher Scientific, cat. PHG0311). The 485176-168-R4-J1-PDC line was cultured in Panc media, which includes all 6C/Colon 1B media components plus 100 ng/mL human FGF-10 (Thermo Fisher Scientific, cat. 100-26), 500 nM SB-431542 (Selleckchem, cat. S1067), and gastrin (Tocris, cat. 3006).
[…]

[1] = second compound 0.0316 µM, first compound 0.0316 µM
[2] = second compound 0.0316 µM, first compound 0.1 µM
[3] = second compound 0.0316 µM, first compound 0.316 µM
[4] = second compound 0.0316 µM, first compound 1 µM
[5] = second compound 0.0316 µM, first compound 3.16 µM
[6] = second compound 0.0316 µM, first compound 10 µM
[7] = second compound 0.1 µM, first compound 0.0316 µM
[8] = second compound 0.1 µM, first compound 0.1 µM
[9] = second compound 0.1 µM, first compound 0.316 µM
[10] = second compound 0.1 µM, first compound 1 µM
[11] = second compound 0.1 µM, first compound 3.16 µM
[12] = second compound 0.1 µM, first compound 10 µM
[13] = second compound 0.316 µM, first compound 0.0316 µM
[14] = second compound 0.316 µM, first compound 0.1 µM
[15] = second compound 0.316 µM, first compound 0.316 µM
[16] = second compound 0.316 µM, first compound 1 µM
[17] = second compound 0.316 µM, first compound 3.16 µM
[18] = second compound 0.316 µM, first compound 10 µM
[19] = second compound 1 µM, first compound 0.0316 µM
[20] = second compound 1 µM, first compound 0.1 µM
[21] = second compound 1 µM, first compound 0.316 µM
[22] = second compound 1 µM, first compound 1 µM
[23] = second compound 1 µM, first compound 3.16 µM
[24] = second compound 1 µM, first compound 10 µM
[25] = second compound 3.16 µM, first compound 0.0316 µM
[26] = second compound 3.16 µM, first compound 0.1 µM
[27] = second compound 3.16 µM, first compound 0.316 µM
[28] = second compound 3.16 µM, first compound 1 µM
[29] = second compound 3.16 µM, first compound 3.16 µM
[30] = second compound 3.16 µM, first compound 10 µM
[31] = second compound 10 µM, first compound 0.0316 µM
[32] = second compound 10 µM, first compound 0.1 µM
[33] = second compound 10 µM, first compound 0.316 µM
[34] = second compound 10 µM, first compound 1 µM
[35] = second compound 10 µM, first compound 3.16 µM
[36] = second compound 10 µM, first compound 10 µM
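Note: spheroids exposed to compounds for one week before readout.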
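Throughout, for viability, T/C: percent viability relative to vehicle DMSO wells taken as 100%.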

C=CCn1c(=O)c2cnc(Nc3ccc(N4CCN(C)CC4)cc3)nc2n1-c1cccc(C(C)(C)O)n1 + Cc1[nH]c2ccc(F)cc2c1-c1nc2c3cccnc3c3ncccc3c2[nH]1
IC50 (second compound 0.0316 µM): 1930 nM
IC50 (second compound 0.1 µM): 1920 nM
IC50 (second compound 0.316 µM): 1470 nM
IC50 (second compound 1 µM): 1570 nM
IC50 (second compound 3.16 µM): 960 nM
IC50 (second compound 10 µM): 1390 nM
viability, T/C [1]: 107%
viability, T/C [2]: 99.1%
viability, T/C [3]: 94.5%
viability, T/C [4]: 77%
viability, T/C [5]: 28.8%
viability, T/C [6]: 27.8%
viability, T/C [7]: 105%
viability, T/C [8]: 104%
viability, T/C [9]: 97.2%
viability, T/C [10]: 81.5%
viability, T/C [11]: 25.4%
viability, T/C [12]: 24%
viability, T/C [13]: 107%
viability, T/C [14]: 98.1%
viability, T/C [15]: 94%
viability, T/C [16]: 62.7%
viability, T/C [17]: 24.2%
viability, T/C [18]: 26%
viability, T/C [19]: 98.5%
viability, T/C [20]: 86.1%
viability, T/C [21]: 86%
viability, T/C [22]: 63.4%
viability, T/C [23]: 29.6%
viability, T/C [24]: 23.9%
viability, T/C [25]: 94.8%
viability, T/C [26]: 76%
viability, T/C [27]: 78.1%
viability, T/C [28]: 48.7%
viability, T/C [29]: 27.8%
viability, T/C [30]: 24.5%
viability, T/C [31]: 86.1%
viability, T/C [32]: 77.8%
viability, T/C [33]: 75.3%
viability, T/C [34]: 58.7%
viability, T/C [35]: 30%
viability, T/C [36]: 24.9%

CC(C)n1c(=O)n(C)c2cnc3cc(F)c(-c4ccc(OCCCN5CCCCC5)nc4)cc3c21 + Cc1cnc(CNC(=O)c2c(=O)c3ccc(N4CCCN(C)CC4)nc3n3c2sc2ccccc23)cn1
IC50 (second compound 0.0316 µM): > 10000 nM
IC50 (second compound 0.1 µM): 3220 nM
IC50 (second compound 0.316 µM): < 31.6 nM
IC50 (second compound 1 µM): < 31.6 nM
IC50 (second compound 3.16 µM): < 31.6 nM
IC50 (second compound 10 µM): < 31.6 nM
viability, T/C [1]: 76.9%
viability, T/C [2]: 60.9%
viability, T/C [3]: 73.1%
viability, T/C [4]: 69.2%
viability, T/C [5]: 73.3%
viability, T/C [6]: 54.3%
viability, T/C [7]: 43.9%
viability, T/C [8]: 45.5%
viability, T/C [9]: 52.8%
viability, T/C [10]: 52%
viability, T/C [11]: 57.7%
viability, T/C [12]: 31.4%
viability, T/C [13]: 32.7%
viability, T/C [14]: 39.1%
viability, T/C [15]: 33%
viability, T/C [16]: 35.2%
viability, T/C [17]: 39.1%
viability, T/C [18]: 17.5%
viability, T/C [19]: 9.65%
viability, T/C [20]: 10.9%
viability, T/C [21]: 8.38%
viability, T/C [22]: 8.38%
viability, T/C [23]: 11%
viability, T/C [24]: 6.11%
viability, T/C [25]: 3.19%
viability, T/C [26]: 3.85%
viability, T/C [27]: 4.08%
viability, T/C [28]: 3.05%
viability, T/C [29]: 4.81%
viability, T/C [30]: 1.31%
viability, T/C [31]: 3.24%
viability, T/C [32]: 2.19%
viability, T/C [33]: 2.95%
viability, T/C [34]: 1.88%
viability, T/C [35]: 2.22%
viability, T/C [36]: 0.46%
